Assays:
Format in all cases: in vivo
serum cholesterol [1] = test: Cholesterol-lowering activity in normocholesterolemic dogs; conditions: Canis lupus familiaris, po, 120 h, dog, p.o., 5 days, regular chow, read-out: daily dose that significantly lowers serum cholesterol
Method: (§1) Male Sprague-Dawley rats (230-250 g) (Taconic Farms) are maintained ad libium on water and a high cholesterol diet (1.5% cholesterol and 0.5% cholic acid) for two weeks prior to and during the 7-day treatment period. Groups of animals are treated orally by gavage with the vehicle alone or with test compound for 7 consecutive days. After the host dose, animals are fasted for 18 hours and blood is collected. Blood samples are centrifuged at 2500 rpm for 10 minutes to prepare plasma for total cholesterol determination as well as LDL and HDL cholesterol concentrations. HDL values are determined after LDL/VLDL precipitation (Warnick and Albers, 1978). All samples are analyzed enzymatically for cholesterol with a diagnostic reagent kit (Sigma Chemical Co., St. Louis, MO). The analysis is performed on a Bio-Mek automated work station. […] The samples are vortexed and are placed on ice for 15 minutes, then centrifuged at 4° C. for 10 minutes at 1300 rpm and the supernatant is enzymatically analyzed for cholesterol. […]
(§2) Cholesterol-lowering activity can also be evaluated in normocholesterolemic dogs fed regular chow following the procedure described above, by administration of test compound orally for 5 days; also in normolipomic cynomolgus monkeys.

serum cholesterol [2] = test: Cholesterol lowering activity in the rat (high cholesterol diet); conditions: po, 168 h, p.o., 7 consecutive days, read-out: daily dose that significantly lowers serum cholesterol
Method: Cholesterol lowering activity is determined in the rat as follows:
Male Sprague-Dawley rats (230-250 g) (Taconic Farms) are maintained ad libium on water and a high cholesterol diet (1.5% cholesterol and 0.5% cholic acid) for two weeks prior to and during the 7-day treatment period. Groups of animals are treated orally by gavage with the vehicle alone or with test compound for 7 consecutive days. After the host dose, animals are fasted for 18 hours and blood is collected. Blood samples are centrifuged at 2500 rpm for 10 minutes to prepare plasma for total cholesterol determination as well as LDL and HDL cholesterol concentrations. HDL values are determined after LDL/VLDL precipitation (Warnick and Albers, 1978). All samples are analyzed enzymatically for cholesterol with a diagnostic reagent kit (Sigma Chemical Co., St. Louis, MO). The analysis is performed on a Bio-Mek automated work station. LDL/VLDL fractions are precipitated in the following manner: 0.35 ml of plasma is aliquoted into Eppendorf tubes to which 12 μl of 2M manganese chloride, 11.2 μl of sodium heparin (Porcine Intestinal, 5000 units/ml), and 8.3 μl of normal saline are added. The samples are vortexed and are placed on ice for 15 minutes, then centrifuged at 4° C. for 10 minutes at 1300 rpm and the supernatant is enzymatically analyzed for cholesterol. […]

serum cholesterol [3] = test: Cholesterol-lowering activity in normolipomic cynomolgus monkeys; conditions: Macaca fascicularis, po, monkey, p.o., read-out: daily dose that significantly lowers serum cholesterol
Method: as §1, §2

SMILES | minimal effective dose (serum cholesterol [1]) [mg/kg/day] | minimal effective dose (serum cholesterol [2]) [mg/kg/day] | minimal effective dose (serum cholesterol [3]) [mg/kg/day]
Cc1cc(NC(=O)C(=O)O)cc(C)c1Oc1ccc(O)c(C(C)C)c1 [N-[3,5-dimethyl-4-(4'-hydroxy-3'-isopropylphenoxy)-phenyl]oxamic acid] | ~0.03 | ~0.02 | 
CCOC(=O)C(=O)Nc1cc(C)c(Oc2ccc(O)c(C(O)c3ccc(F)cc3)c2)c(C)c1 (centres unmarked) [ethyl N-[4-[3'-[(4-fluorophenyl) hydroxymethyl]-4'-hydroxyphenoxy]-3,5-dimethylphenyl]oxamate] | ~0.01 | ~0.005 | ~0.001

From patent US5401772A, “Heteroacetic acid derivatives” (Ciba-Geigy Corporation, priority 1993, dated 1995)
